Assay results as given in patent US20090312288A1 (TAKEDA PHARMACEUTICAL COMPANY LIMITED, priority 2008, published 2009).
pIC50: −log10 of the molar value.

What follows are compounds tested against Aurora B/INCENP (Homo sapiens, UniProt Q96GD4) (assay: Determination of inhibition of AIK: Aurora B/INCENP direct fluorescence polarization (IMAP) assay). Details: 10 uM ATP, 0.8 nM Aurora B/INCENP; values given as bins; read-out: IC50 of Exemplified Compounds Against AIK B.
Format: biochemical

Chain of Aurora B/INCENP (Q96GD4 whole entry): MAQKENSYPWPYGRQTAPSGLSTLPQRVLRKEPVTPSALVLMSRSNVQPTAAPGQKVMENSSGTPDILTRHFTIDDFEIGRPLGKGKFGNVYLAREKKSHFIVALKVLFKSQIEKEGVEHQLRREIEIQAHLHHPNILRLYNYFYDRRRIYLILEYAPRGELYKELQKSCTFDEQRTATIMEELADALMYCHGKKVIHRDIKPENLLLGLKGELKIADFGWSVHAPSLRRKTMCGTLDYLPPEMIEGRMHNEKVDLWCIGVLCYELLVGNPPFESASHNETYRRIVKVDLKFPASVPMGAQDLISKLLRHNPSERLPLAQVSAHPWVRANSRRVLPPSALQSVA
Chain of Aurora B/INCENP (Q9NQS7 whole entry partner): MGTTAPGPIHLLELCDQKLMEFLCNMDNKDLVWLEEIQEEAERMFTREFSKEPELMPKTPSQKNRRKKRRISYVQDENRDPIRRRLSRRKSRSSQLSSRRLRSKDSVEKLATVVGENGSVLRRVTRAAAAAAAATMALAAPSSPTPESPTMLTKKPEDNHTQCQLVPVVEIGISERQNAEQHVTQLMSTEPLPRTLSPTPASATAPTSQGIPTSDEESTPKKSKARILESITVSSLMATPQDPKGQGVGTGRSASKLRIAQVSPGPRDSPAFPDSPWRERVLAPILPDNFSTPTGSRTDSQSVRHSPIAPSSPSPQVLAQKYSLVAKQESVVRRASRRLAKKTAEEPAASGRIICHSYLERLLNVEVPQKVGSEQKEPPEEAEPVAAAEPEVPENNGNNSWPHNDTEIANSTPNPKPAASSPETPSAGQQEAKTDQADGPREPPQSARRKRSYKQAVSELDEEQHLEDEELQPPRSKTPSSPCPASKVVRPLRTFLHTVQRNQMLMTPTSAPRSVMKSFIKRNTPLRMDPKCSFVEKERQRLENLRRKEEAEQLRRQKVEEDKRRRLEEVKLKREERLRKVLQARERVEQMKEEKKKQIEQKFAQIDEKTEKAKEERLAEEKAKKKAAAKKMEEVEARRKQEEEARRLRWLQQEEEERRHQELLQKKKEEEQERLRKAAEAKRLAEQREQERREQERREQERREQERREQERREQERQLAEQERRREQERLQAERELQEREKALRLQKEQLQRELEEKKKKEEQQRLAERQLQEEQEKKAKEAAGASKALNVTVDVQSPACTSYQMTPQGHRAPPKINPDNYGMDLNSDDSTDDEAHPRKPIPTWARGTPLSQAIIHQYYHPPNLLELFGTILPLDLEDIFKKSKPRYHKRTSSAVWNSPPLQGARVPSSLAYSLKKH

pIC50, 8.07 to 8.25:
CCOc1ccc(-c2cccc(S(=O)(=O)CC)c2)c2c1[nH]c1ncc(C)cc12 [Compound 171, 8-ethoxy-5-(3-(ethylsulfonyl)phenyl)-3-methyl-9H-pyrido[2,3-b]indole]
CCS(=O)(=O)c1cccc(-c2ccc(OC(F)F)c3[nH]c4ncc(C)cc4c23)c1 [Compound 172, 8-(difluoromethoxy)-5-(3-(ethylsulfonyl)phenyl)-3-methyl-9H-pyrido[2,3-b]indole]
CCS(=O)(=O)c1cccc(-c2ccc(OCC(F)(F)F)c3[nH]c4ncc(C)cc4c23)c1 [Compound 173, 5-(3-(ethylsulfonyl)phenyl)-3-methyl-8-(2,2,2-trifluoroethoxy)-9H-pyrido[2,3-b]indole]
Cc1cnc2[nH]c3c(OCC4CCN(C)CC4)ccc(-c4cccc(S(=O)(=O)C5CC5)c4)c3c2c1 [Compound 179, 5-(3-(cyclopropylsulfonyl)phenyl)-3-methyl-8-((1-methylpiperidin-4-yl)methoxy)-9H-pyrido[2,3-b]indole]
Cc1cnc2[nH]c3c(OCC4CCN(C)CC4)ccc(-c4cccc(NC(=O)C5CC5)c4)c3c2c1 [Compound 182, N-(3-(3-methyl-8-((1-methylpiperidin-4-yl)methoxy)-9H-pyrido[2,3-b]indol-5-yl)phenyl)cyclopropanecarboxamide]
CCS(=O)(=O)c1cccc(-c2ccc(OCC3CCN(C)CC3)c3[nH]c4ncc(Cl)cc4c23)c1 [Compound 200, 3-chloro-5-(3-(ethylsulfonyl)phenyl)-8-((1-methylpiperidin-4-yl)methoxy)-9H-pyrido[2,3-b]indole]
CCS(=O)(=O)c1cccc(-c2ccc(OCC3CCN(C)CC3)c3[nH]c4ncc(C#N)cc4c23)c1 [Compound 203, 5-(3-(ethylsulfonyl)phenyl)-8-((1-methylpiperidin-4-yl)methoxy)-9H-pyrido[2,3-b]indole-3-carbonitrile]

pIC50, > 8.40:
CCNS(=O)(=O)c1cccc(-c2ccc(OC)c3[nH]c4ncc(C)cc4c23)c1 [Compound 170, N-ethyl-3-(8-methoxy-3-methyl-9H-pyrido[2,3-b]indol-5-yl)benzenesulfonamide]
CCS(=O)(=O)c1cccc(-c2ccc(OCC3CCNCC3)c3[nH]c4ncc(Cl)cc4c23)c1 [Compound 201, 3-chloro-5-(3-(ethylsulfonyl)phenyl)-8-(piperidin-4-ylmethoxy)-9H-pyrido[2,3-b]indole]
CCS(=O)(=O)c1cccc(-c2cc(F)c(OCCCN(C)C)c3[nH]c4ncc(Cl)cc4c23)c1 [Compound 205, 3-(3-chloro-5-(3-(ethylsulfonyl)phenyl)-7-fluoro-9H-pyrido[2,3-b]indol-8-yloxy)-N,N-dimethylpropan-1-amine]

pIC50, 8.26 to 8.40:
CCS(=O)(=O)c1cccc(-c2ccc(OCC3CCNCC3)c3[nH]c4ncc(C)cc4c23)c1 [Compound 185, 5-(3-(ethylsulfonyl)phenyl)-3-methyl-8-(piperidin-4-ylmethoxy)-9H-pyrido[2,3-b]indole]
Cc1cnc2[nH]c3c(OCCCN(C)C)ccc(-c4cccc(S(=O)(=O)C5CC5)c4)c3c2c1 [Compound 194, 3-(5-(3-(cyclopropylsulfonyl)phenyl)-3-methyl-9H-pyrido[2,3-b]indol-8-yloxy)-N,N-dimethylpropan-1-amine]

pIC50, 7.89 to 8.07:
CCS(=O)(=O)c1cccc(-c2ccc(OCC3CCN(C)CC3)c3[nH]c4ncc(C)cc4c23)c1 [Compound 177, 5-(3-(ethylsulfonyl)phenyl)-3-methyl-8-((1-methylpiperidin-4-yl)methoxy)-9H-pyrido[2,3-b]indole]
CNS(=O)(=O)c1cccc(-c2ccc(OCC3CCN(C)CC3)c3[nH]c4ncc(C)cc4c23)c1 [Compound 180, N-methyl-3-(3-methyl-8-((1-methylpiperidin-4-yl)methoxy)-9H-pyrido[2,3-b]indole-5-yl)benzenesulfonamide]
Cc1cnc2[nH]c3c(OCC4CCN(C)CC4)ccc(-c4cccc(S(=O)(=O)N(C)C)c4)c3c2c1 [Compound 181, N,N-dimethyl-3-(3-methyl-8-((1-methylpiperidin-4-yl)methoxy)-9H-pyrido[2,3-b]indole-5-yl)benzenesulfonamide]
CCS(=O)(=O)c1cccc(-c2ccc(OC[C@@H]3CCCN3C)c3[nH]c4ncc(C)cc4c23)c1 [Compound 188, (S)-5-(3-(ethylsulfonyl)phenyl)-3-methyl-8-((1-methylpyrrolidin-2-yl)methoxy)-9H-pyrido[2,3-b]indole]
CCS(=O)(=O)c1cccc(-c2ccc(OC[C@H]3CCNC3)c3[nH]c4ncc(C)cc4c23)c1 [Compound 189, (S)-5-(3-(ethylsulfonyl)phenyl)-3-methyl-8-(pyrrolidin-3-ylmethoxy)-9H-pyrido[2,3-b]indole]
CCS(=O)(=O)c1cccc(-c2ccc(OCC3CCN(C)CC3)c3[nH]c4ncc(C(F)(F)F)cc4c23)c1 [Compound 202, 5-(3-(ethylsulfonyl)phenyl)-8-((1-methylpiperidin-4-yl)methoxy)-3-(trifluoromethyl)-9H-pyrido[2,3-b]indole]
CCS(=O)(=O)c1cccc(-c2cc(F)c(OCCN(C)C)c3[nH]c4ncc(C)cc4c23)c1 [Compound 204, 2-(5-(3-(ethylsulfonyl)phenyl)-7-fluoro-3-methyl-9H-pyrido[2,3-b]indol-8-yloxy)-N,N-dimethylethanamine]

pIC50, < 7.89:
Cc1cnc2[nH]c3c(OCC4CCN(C)CC4)ccc(-c4cccc(C(=O)NC5CC5)c4)c3c2c1 [Compound 178, N-cyclopropyl-3-(3-methyl-8-((1-methylpiperidin-4-yl)methoxy)-9H-pyrido[2,3-b]indol-5-yl)benzamide]
CCSc1cccc(-c2ccc(OCC3CCN(C)CC3)c3[nH]c4ncc(C)cc4c23)c1 [Compound 183]
CCOc1cccc(-c2ccc(OCC3CCN(C)CC3)c3[nH]c4ncc(C)cc4c23)c1 [Compound 184, 5-(3-ethoxyphenyl)-3-methyl-8-((1-methylpiperidin-4-yl)methoxy)-9H-pyrido[2,3-b]indole]
CCS(=O)(=O)c1cccc(-c2ccc(OC[C@H]3CCN(C)C3)c3[nH]c4ncc(C)cc4c23)c1 [Compound 186, (S)-5-(3-(ethylsulfonyl)phenyl)-3-methyl-8-((1-methylpyrrolidin-3-yl)methoxy)-9H-pyrido[2,3-b]indole]
CCS(=O)(=O)c1cccc(-c2ccc(OC[C@@H]3CCN(C)C3)c3[nH]c4ncc(C)cc4c23)c1 [Compound 187, (R)-5-(3-(ethylsulfonyl)phenyl)-3-methyl-8-((1-methylpyrrolidin-3-yl)methoxy)-9H-pyrido[2,3-b]indole]
CCS(=O)(=O)c1cccc(-c2ccc(OC[C@@H]3CCNC3)c3[nH]c4ncc(C)cc4c23)c1 [Compound 190, (R)-5-(3-(ethylsulfonyl)phenyl)-3-methyl-8-(pyrrolidin-3-ylmethoxy)-9H-pyrido[2,3-b]indole]
Cc1cnc2[nH]c3c(OCCCN(C)C)ccc(-c4cccc(NC(=O)C5CC5)c4)c3c2c1 [Compound 195, N-(3-(8-(3-(dimethylamino)propoxy)-3-methyl-9H-pyrido[2,3-b]indol-5-yl)phenyl)cyclopropanecarboxamide]
